Test results reported in the kinase profiling compilation of Christmann-Franck et al. (2016).
“And” between values parts separate entries of the source, which are not always exact repeats. Identical values can stand only once.

Tests used:
Experiment in all cases: KINOMEscan competition binding
Details in all cases: compound 10.0 µM
MAP3K7 (human) = MAP3K7 (human) (UniProt O43318)
RPS6KA4 KD2 (human) = RPS6KA4 KD2 (human) (UniProt O75676)
MAP3K5 (human) = MAP3K5 (human) (UniProt Q99683)
TLK1 (human) = TLK1 (human) (UniProt Q9UKI8)
RPS6KA2 KD2 (human) = RPS6KA2 KD2 (human) (UniProt Q15349)
MAP3K4 (human) = MAP3K4 (human) (UniProt Q9Y6R4)
HCK (human) = HCK (human) (UniProt P08631)
Sequence of HCK (human) (P08631 whole entry, looked up): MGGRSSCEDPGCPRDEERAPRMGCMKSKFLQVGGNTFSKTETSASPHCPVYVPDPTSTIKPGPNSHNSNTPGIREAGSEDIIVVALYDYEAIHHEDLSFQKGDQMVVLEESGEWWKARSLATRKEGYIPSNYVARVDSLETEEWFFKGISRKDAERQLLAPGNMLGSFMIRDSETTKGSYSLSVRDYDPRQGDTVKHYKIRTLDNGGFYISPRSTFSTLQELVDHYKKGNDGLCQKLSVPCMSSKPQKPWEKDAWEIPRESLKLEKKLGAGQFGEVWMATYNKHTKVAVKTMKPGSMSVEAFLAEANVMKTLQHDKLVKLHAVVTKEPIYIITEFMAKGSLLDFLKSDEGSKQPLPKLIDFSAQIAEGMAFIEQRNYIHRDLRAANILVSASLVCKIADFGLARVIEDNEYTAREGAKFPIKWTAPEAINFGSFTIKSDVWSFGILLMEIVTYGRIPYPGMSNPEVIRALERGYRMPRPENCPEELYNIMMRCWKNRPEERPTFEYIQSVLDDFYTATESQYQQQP

RIPK1 (human) = RIPK1 (human) (UniProt Q13546)
PTK2B (human) = PTK2B (human) (UniProt Q14289)
DDR2 (human) = DDR2 (human) (UniProt Q16832)
MAPK13 (human) = MAPK13 (human) (UniProt O15264)
EPHB2 (human) = EPHB2 (human) (UniProt P29323)
EPHB4 (human) = EPHB4 (human) (UniProt P54760)
PTK2 (human) = PTK2 (human) (UniProt Q05397)
MAPK6 (human) = MAPK6 (human) (UniProt Q16659)
MAPK12 (human) = MAPK12 (human) (UniProt P53778)
TTK (human) = TTK (human) (UniProt P33981)
PTK6 (human) = PTK6 (human) (UniProt Q13882)
Sequence of PTK6 (human) (Q13882 whole entry, looked up): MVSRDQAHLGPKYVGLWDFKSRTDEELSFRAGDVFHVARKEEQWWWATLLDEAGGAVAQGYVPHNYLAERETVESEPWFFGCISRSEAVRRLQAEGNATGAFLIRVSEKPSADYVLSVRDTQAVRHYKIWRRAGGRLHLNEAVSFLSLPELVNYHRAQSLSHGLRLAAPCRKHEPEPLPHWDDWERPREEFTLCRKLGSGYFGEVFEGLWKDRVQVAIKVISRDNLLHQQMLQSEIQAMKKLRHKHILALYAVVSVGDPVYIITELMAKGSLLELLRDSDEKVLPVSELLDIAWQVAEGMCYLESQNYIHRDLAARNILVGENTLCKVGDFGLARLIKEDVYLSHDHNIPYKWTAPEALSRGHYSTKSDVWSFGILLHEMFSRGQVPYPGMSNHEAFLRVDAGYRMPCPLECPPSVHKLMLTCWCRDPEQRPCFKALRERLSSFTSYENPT

IKBKE (human) = IKBKE (human) (UniProt Q14164)
PRKCE (human) = PRKCE (human) (UniProt Q02156)
EPHA6 (human) = EPHA6 (human) (UniProt Q9UF33)
STK3 (human) = STK3 (human) (UniProt Q13188)
ULK1 (human) = ULK1 (human) (UniProt O75385)
CDK19 (human) = CDK19 (human) (UniProt Q9BWU1)
ACVR2A (human) = ACVR2A (human) (UniProt P27037)
CAMK2D (human) = CAMK2D (human) (UniProt Q13557)
Sequence of CAMK2D (human) (Q13557 whole entry, looked up): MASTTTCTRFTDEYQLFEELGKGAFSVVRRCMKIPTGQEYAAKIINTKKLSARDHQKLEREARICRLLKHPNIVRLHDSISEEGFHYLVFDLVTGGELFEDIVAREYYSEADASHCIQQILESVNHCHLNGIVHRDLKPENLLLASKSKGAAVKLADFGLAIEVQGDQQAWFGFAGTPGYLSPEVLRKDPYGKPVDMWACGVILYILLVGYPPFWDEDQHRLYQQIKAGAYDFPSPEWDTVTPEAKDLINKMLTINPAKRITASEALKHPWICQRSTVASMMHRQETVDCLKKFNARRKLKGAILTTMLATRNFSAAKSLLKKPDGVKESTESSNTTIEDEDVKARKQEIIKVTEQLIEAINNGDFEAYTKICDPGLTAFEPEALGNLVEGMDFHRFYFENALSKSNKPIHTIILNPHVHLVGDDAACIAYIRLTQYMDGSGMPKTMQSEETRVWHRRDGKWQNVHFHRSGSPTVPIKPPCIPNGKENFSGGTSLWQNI

ACVR1 (human) = ACVR1 (human) (UniProt Q04771)
CSF1R (human) = CSF1R (human) (UniProt P07333)
Sequence of CSF1R (human) (P07333 whole entry, looked up): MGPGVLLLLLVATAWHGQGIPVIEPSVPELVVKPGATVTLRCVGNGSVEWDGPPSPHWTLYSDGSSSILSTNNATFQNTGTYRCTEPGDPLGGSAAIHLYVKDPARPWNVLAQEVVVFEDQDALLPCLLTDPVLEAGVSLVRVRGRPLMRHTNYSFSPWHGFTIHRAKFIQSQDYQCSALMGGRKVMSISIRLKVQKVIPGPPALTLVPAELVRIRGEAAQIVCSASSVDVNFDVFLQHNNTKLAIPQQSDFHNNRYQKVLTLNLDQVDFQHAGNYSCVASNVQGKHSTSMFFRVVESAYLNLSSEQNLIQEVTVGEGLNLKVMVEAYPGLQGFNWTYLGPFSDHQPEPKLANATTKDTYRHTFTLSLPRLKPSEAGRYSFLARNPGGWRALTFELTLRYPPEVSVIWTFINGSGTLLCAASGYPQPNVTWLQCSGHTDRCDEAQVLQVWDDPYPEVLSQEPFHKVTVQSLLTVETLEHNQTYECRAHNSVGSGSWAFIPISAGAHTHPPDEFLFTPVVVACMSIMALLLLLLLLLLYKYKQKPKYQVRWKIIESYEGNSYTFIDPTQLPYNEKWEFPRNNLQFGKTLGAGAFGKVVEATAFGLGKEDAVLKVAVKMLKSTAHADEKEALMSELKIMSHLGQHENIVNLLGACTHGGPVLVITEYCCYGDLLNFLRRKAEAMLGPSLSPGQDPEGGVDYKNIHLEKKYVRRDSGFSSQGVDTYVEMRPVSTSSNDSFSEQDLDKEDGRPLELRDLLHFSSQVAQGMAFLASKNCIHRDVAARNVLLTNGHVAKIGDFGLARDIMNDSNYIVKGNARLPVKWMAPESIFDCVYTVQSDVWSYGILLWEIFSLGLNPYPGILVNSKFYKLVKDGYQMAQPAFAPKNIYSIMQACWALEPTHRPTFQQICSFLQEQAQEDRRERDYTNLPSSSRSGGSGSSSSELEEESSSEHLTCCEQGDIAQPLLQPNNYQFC

CAMK2G (human) = CAMK2G (human) (UniProt Q13555)
Sequence of CAMK2G (human) (Q13555 whole entry, looked up): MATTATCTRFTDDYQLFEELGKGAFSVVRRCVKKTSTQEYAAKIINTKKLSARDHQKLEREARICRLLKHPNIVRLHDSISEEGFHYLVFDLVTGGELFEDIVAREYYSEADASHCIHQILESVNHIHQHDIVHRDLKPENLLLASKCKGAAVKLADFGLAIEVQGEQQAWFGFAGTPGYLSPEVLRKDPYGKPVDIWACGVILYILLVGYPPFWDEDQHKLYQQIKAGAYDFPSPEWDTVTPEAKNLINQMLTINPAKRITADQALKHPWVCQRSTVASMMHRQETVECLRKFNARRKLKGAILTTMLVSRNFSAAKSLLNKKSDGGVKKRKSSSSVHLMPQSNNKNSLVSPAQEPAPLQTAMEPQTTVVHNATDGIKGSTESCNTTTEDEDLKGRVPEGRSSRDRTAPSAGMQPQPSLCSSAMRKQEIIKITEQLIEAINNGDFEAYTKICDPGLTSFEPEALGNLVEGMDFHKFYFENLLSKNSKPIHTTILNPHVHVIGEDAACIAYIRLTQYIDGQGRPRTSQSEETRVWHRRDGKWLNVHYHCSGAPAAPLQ

IRAK3 (human) = IRAK3 (human) (UniProt Q9Y616)
ZAP70 (human) = ZAP70 (human) (UniProt P43403)
AAK1 (human) = AAK1 (human) (UniProt Q2M2I8)
EPHA2 (human) = EPHA2 (human) (UniProt P29317)
TGFBR2 (human) = TGFBR2 (human) (UniProt P37173)
Sequence of TGFBR2 (human) (P37173 whole entry, looked up): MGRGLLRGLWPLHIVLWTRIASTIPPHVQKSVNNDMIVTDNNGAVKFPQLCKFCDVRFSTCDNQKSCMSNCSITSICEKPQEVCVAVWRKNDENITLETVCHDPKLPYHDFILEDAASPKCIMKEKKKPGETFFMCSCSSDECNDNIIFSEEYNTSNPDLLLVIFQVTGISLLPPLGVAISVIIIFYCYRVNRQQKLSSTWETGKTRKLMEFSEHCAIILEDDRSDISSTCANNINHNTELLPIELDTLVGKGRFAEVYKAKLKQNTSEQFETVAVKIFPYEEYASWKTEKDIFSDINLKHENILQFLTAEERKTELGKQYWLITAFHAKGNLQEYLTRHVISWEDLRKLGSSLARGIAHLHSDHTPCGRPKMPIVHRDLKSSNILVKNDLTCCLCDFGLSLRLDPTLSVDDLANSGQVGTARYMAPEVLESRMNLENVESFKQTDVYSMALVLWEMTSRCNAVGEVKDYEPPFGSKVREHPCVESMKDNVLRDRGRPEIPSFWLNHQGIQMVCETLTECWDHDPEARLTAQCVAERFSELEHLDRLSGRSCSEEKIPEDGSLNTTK

EPHA7 (human) = EPHA7 (human) (UniProt Q15375)
RIOK1 (human) = RIOK1 (human) (UniProt Q9BRS2)
Sequence of RIOK1 (human) (Q9BRS2 whole entry, looked up): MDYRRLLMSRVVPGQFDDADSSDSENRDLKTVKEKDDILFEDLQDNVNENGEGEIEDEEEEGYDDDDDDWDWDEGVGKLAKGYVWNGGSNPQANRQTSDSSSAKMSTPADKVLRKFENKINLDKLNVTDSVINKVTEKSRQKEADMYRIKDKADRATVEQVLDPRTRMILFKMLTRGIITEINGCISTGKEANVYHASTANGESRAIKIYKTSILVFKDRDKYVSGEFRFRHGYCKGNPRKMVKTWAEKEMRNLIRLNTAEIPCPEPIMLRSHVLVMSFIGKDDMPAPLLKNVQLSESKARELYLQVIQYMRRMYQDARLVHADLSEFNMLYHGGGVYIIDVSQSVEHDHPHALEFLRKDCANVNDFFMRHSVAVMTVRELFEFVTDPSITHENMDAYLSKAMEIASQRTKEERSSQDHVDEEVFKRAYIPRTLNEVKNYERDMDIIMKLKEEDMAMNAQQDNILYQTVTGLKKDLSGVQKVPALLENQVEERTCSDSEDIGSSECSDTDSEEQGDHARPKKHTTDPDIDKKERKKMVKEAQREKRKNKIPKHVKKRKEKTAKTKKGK

PAK1 (human) = PAK1 (human) (UniProt Q13153)
RPS6KA4 KD1 (human) = RPS6KA4 KD1 (human) (UniProt O75676)
EPHA3 (human) = EPHA3 (human) (UniProt P29320)
MAPK15 (human) = MAPK15 (human) (UniProt Q8TD08)

Sequence of MAP3K7 (human) (O43318 whole entry, looked up): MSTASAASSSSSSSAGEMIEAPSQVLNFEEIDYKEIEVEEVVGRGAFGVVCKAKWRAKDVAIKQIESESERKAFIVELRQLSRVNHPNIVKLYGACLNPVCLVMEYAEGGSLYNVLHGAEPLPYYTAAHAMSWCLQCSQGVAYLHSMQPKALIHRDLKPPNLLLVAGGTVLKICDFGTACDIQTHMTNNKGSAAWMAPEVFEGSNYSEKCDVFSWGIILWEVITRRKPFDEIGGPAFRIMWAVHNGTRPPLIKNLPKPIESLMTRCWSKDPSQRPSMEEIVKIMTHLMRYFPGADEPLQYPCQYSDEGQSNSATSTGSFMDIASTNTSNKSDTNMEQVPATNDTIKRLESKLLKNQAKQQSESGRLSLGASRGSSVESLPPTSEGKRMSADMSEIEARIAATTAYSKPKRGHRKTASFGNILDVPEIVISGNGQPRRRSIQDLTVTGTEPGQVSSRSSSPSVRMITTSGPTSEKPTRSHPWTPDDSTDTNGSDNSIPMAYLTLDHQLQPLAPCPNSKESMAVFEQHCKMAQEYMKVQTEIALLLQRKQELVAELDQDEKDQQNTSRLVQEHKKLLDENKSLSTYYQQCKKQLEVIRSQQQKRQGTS

Compound	kinase still bound, per cent of control (MAP3K7 (human)) [%]	kinase still bound, per cent of control (RPS6KA4 KD2 (human)) [%]	kinase still bound, per cent of control (MAP3K5 (human)) [%]	kinase still bound, per cent of control (TLK1 (human)) [%]	kinase still bound, per cent of control (RPS6KA2 KD2 (human)) [%]	kinase still bound, per cent of control (MAP3K4 (human)) [%]	kinase still bound, per cent of control (HCK (human)) [%]	kinase still bound, per cent of control (RIPK1 (human)) [%]	kinase still bound, per cent of control (PTK2B (human)) [%]	kinase still bound, per cent of control (DDR2 (human)) [%]	kinase still bound, per cent of control (MAPK13 (human)) [%]	kinase still bound, per cent of control (EPHB2 (human)) [%]	kinase still bound, per cent of control (EPHB4 (human)) [%]	kinase still bound, per cent of control (PTK2 (human)) [%]	kinase still bound, per cent of control (MAPK6 (human)) [%]	kinase still bound, per cent of control (MAPK12 (human)) [%]	kinase still bound, per cent of control (TTK (human)) [%]	kinase still bound, per cent of control (PTK6 (human)) [%]	kinase still bound, per cent of control (IKBKE (human)) [%]	kinase still bound, per cent of control (PRKCE (human)) [%]	also measured
N#Cc1c(NC(=O)c2cccc3ccccc23)sc2c1CCCC2	82	100	94	76	79	86	92	87	79	100	46	75	100	91	86	82	91	46	100	100	kinase still bound, per cent of control (EPHA6 (human)): 94%; kinase still bound, per cent of control (STK3 (human)): 91%; kinase still bound, per cent of control (ULK1 (human)): 100%; kinase still bound, per cent of control (CDK19 (human)): 88%; kinase still bound, per cent of control (ACVR2A (human)): 69%; kinase still bound, per cent of control (CAMK2D (human)): 93%; kinase still bound, per cent of control (ACVR1 (human)): 64%; kinase still bound, per cent of control (CSF1R (human)): 100% and 84%; kinase still bound, per cent of control (CAMK2G (human)): 94%; kinase still bound, per cent of control (IRAK3 (human)): 100%; kinase still bound, per cent of control (ZAP70 (human)): 87%; kinase still bound, per cent of control (AAK1 (human)): 91%; kinase still bound, per cent of control (EPHA2 (human)): 100%; kinase still bound, per cent of control (TGFBR2 (human)): 100%; kinase still bound, per cent of control (EPHA7 (human)): 84%; kinase still bound, per cent of control (RIOK1 (human)): 100%; kinase still bound, per cent of control (PAK1 (human)): 100%; kinase still bound, per cent of control (RPS6KA4 KD1 (human)): 91%; kinase still bound, per cent of control (EPHA3 (human)): 100%; kinase still bound, per cent of control (MAPK15 (human)): 64%
C=CC(=O)Nc1cccc(Nc2nc(N[C@H]3CC[C@H](N(C)C)CC3)nc3c2ncn3C(C)C)c1	21	52	100	100	81	100	27	100	51	100	94	87	60	26	100	96	51	100	95	52	kinase still bound, per cent of control (EPHA6 (human)): 73%; kinase still bound, per cent of control (STK3 (human)): 57%; kinase still bound, per cent of control (ULK1 (human)): 0.7%; kinase still bound, per cent of control (CDK19 (human)): 100%; kinase still bound, per cent of control (ACVR2A (human)): 97%; kinase still bound, per cent of control (CAMK2D (human)): 53%; kinase still bound, per cent of control (ACVR1 (human)): 100%; kinase still bound, per cent of control (CSF1R (human)): 52%; kinase still bound, per cent of control (CAMK2G (human)): 76%; kinase still bound, per cent of control (IRAK3 (human)): 38%; kinase still bound, per cent of control (ZAP70 (human)): 77%; kinase still bound, per cent of control (AAK1 (human)): 45%; kinase still bound, per cent of control (EPHA2 (human)): 60%; kinase still bound, per cent of control (TGFBR2 (human)): 100%; kinase still bound, per cent of control (EPHA7 (human)): 100%; kinase still bound, per cent of control (RIOK1 (human)): 31%; kinase still bound, per cent of control (PAK1 (human)): 78%; kinase still bound, per cent of control (RPS6KA4 KD1 (human)): 59%; kinase still bound, per cent of control (EPHA3 (human)): 54%; kinase still bound, per cent of control (MAPK15 (human)): 75%
COc1cc(C(=O)NC2CCN(C)CC2)ccc1Nc1ncc2c(n1)N(C1CCCC1)C(C)CC(=O)N2C (stereo not given)	100	100	100	100	5.8	100	100	100	13	100	100	100	100	0.4	100	100	4.6	100	100	100	kinase still bound, per cent of control (EPHA6 (human)): 100%; kinase still bound, per cent of control (STK3 (human)): 100%; kinase still bound, per cent of control (ULK1 (human)): 100%; kinase still bound, per cent of control (CDK19 (human)): 100%; kinase still bound, per cent of control (ACVR2A (human)): 100%; kinase still bound, per cent of control (CAMK2D (human)): 100%; kinase still bound, per cent of control (ACVR1 (human)): 100%; kinase still bound, per cent of control (CSF1R (human)): 100%; kinase still bound, per cent of control (CAMK2G (human)): 34%; kinase still bound, per cent of control (IRAK3 (human)): 100%; kinase still bound, per cent of control (ZAP70 (human)): 100%; kinase still bound, per cent of control (AAK1 (human)): 100%; kinase still bound, per cent of control (EPHA2 (human)): 100%; kinase still bound, per cent of control (TGFBR2 (human)): 100%; kinase still bound, per cent of control (EPHA7 (human)): 100%; kinase still bound, per cent of control (RIOK1 (human)): 100%; kinase still bound, per cent of control (PAK1 (human)): 100%; kinase still bound, per cent of control (RPS6KA4 KD1 (human)): 100%; kinase still bound, per cent of control (EPHA3 (human)): 100%; kinase still bound, per cent of control (MAPK15 (human)): 100%
